The values below come from EP0248954B1, “Process for reducing the amount of DDT-related impurities in 1,1-bis(chlorophenyl)-2,2,2-trichloro-ethanol” (ROHM AND HAAS COMPANY, priority 1986, dated 1987).

Common to all, as to format: physicochemical
Series [1] can be described thus: Single-stage extraction: partitioning of dicofol technical between n-heptane and 90% aqueous methanol. On the procedure: A 50g sample of the desired dicofol solution was taken in a stoppered 100 ml graduated cylinder. […] They were then shaken well for two minutes. The samples were placed in an ice-water bath for 30 minutes. After the cooling period all samples were again shaken for 2 minutes. The samples were returned to the bath and allowed to equilibrate for 30 minutes. The samples were then removed from the bath and volumes recorded (Table I - Columns 2 and 3). The layers were then separated and each layer weighed (Columns 4 and 5). The separated layers were concentrated under vacuum (70°C, 1 mm Hg), weighed (columns 6 and 7) and analyzed (Table II).
In subsequent experiments, the partitioning of dicofol technical between n-heptane and 90% aqueous methanol was also evaluated at 23°C. The combined results from the 0°C and 23°C experiments are presented in Table IV where the results are expressed as distribution coefficients for dicofol and the two principal DDTr's found in dicofol technical, o,p'-DDE and p,p'-Cl-DDT. In all cases, the extractability of DDTr's exceeded that of dicofol by a significant margin.

Series [2] in a line: Single-stage extraction: dicofol technical in aqueous ethanol of various concentrations partitioned with heptane. To be noted: 30% dicofol technical solution, 50 grams, 40 grams heptane, 23°C. How it is done: Alternative solvent systems were evaluated. The distribution coefficients were determined by partitioning dicofol technical.
In Table VII, n-heptane was used as the extractant and different raffinate phase solvents were evaluated. In Table VIII, ethanol was used as the raffinate solvent and different extracting solvents were evaluated. In Table IX, n-heptane was used as the extractant and ethanol at different aqueous concentrations was used as the raffinate solvent. In the experiments set forth in Table IX, 30% dicofol technical solution (in the raffinate layer) was used and 50 grams of this solution was partitioned with 40 grams of the extracting solvent. In Table X, methanol was used as the raffinate solvent and different extracting solvents were evaluated. And in Table XI, using n-heptane as the extracting solvent and aqueous methanol as the raffinate solvent, the partition coefficients were determined as a function of temperature and concentration of dicofol.

Series [3] is described as follows: Single-stage extraction: dicofol technical in aqueous methanols of various water content contacted with n-heptane. To be noted: 50g of 33% solution of dicofol technical, 40 g n-heptane, 23°C. How it is done:
The effect on distribution coefficients and selectivities of the amount of water in the methanol was determined. […] All distribution coefficients rise as the percentage of water increases. The selectivities rise initially but then begin to decrease at water levels higher than a maximum range. Importantly, if the water in the methanol is omitted, the addition of practical concentrations of dicofol technical causes the phases to coalesce.

Setting [4] is: dicofol technical spiked with 0.25 Wt % p,p'-DDD and separately p,p'-DDT, 50g of 33% solution in 90% aqueous methanol, 40g n-heptane, 23°C.
The mark [5] stands for this setting: dicofol technical spiked with 0.72 Wt % p,p'-DDD and separately p,p'-DDT, 50g of 33% solution in 90% aqueous methanol, 40g n-heptane, 23°C.
[6] abbreviates: dicofol technical spiked with 1.80 Wt % p,p'-DDD and separately p,p'-DDT, 50g of 33% solution in 90% aqueous methanol, 40g n-heptane, 23°C.
Where [7] appears, read: heptane layer / raffinate layer, 50 g of dicofol solution conc. 8.4 in 90% aqueous methanol, 20 g heptane, 0 °C.
Where [8] appears, read: heptane layer / raffinate layer, 50 g of dicofol solution conc. 10 in 90% aqueous methanol, 40 g heptane, 23 °C.
Where [9] appears, read: heptane layer / raffinate layer, 50 g of dicofol solution conc. 16.7 in 90% aqueous methanol, 20 g heptane, 0 °C.
Where [10] appears, read: heptane layer / raffinate layer, 50 g of dicofol solution conc. 16.7 in 90% aqueous methanol, 20 g heptane, 23 °C.
Setting [11] is: heptane layer / raffinate layer, 50 g of dicofol solution conc. 20 in 90% aqueous methanol, 40 g heptane, 23 °C.
The mark [12] stands for this setting: heptane layer / raffinate layer, 50 g of dicofol solution conc. 30 in 90% aqueous methanol, 40 g heptane, 23 °C.
The mark [13] stands for this setting: heptane layer / raffinate layer, 50 g of dicofol solution conc. 33 in 90% aqueous methanol, 20 g heptane, 0 °C.
[14] abbreviates: heptane layer / raffinate layer, 50 g of dicofol solution conc. 40 in 90% aqueous methanol, 40 g heptane, 23 °C.
The mark [15] stands for this setting: heptane layer / raffinate layer, 50 g of dicofol solution conc. 50 in 90% aqueous methanol, 20 g heptane, 0 °C.
Setting [16] is: heptane layer / raffinate layer, 50 g of dicofol solution conc. 50 in 90% aqueous methanol, 40 g heptane, 23 °C.
Where [17] appears, read: ratio of DDTr D.C. to that of dicofol, dicofol solution conc. 8.4 in 90% aqueous methanol, 20 g heptane, 0 °C.
The mark [18] stands for this setting: ratio of DDTr D.C. to that of dicofol, dicofol solution conc. 10 in 90% aqueous methanol, 40 g heptane, 23 °C.
[19] abbreviates: ratio of DDTr D.C. to that of dicofol, dicofol solution conc. 16.7 in 90% aqueous methanol, 20 g heptane, 0 °C.
Setting [20] is: ratio of DDTr D.C. to that of dicofol, dicofol solution conc. 16.7 in 90% aqueous methanol, 20 g heptane, 23 °C.
[21] abbreviates: ratio of DDTr D.C. to that of dicofol, dicofol solution conc. 20 in 90% aqueous methanol, 40 g heptane, 23 °C.
The mark [22] stands for this setting: ratio of DDTr D.C. to that of dicofol, dicofol solution conc. 30 in 90% aqueous methanol, 40 g heptane, 23 °C.
[23] abbreviates: ratio of DDTr D.C. to that of dicofol, dicofol solution conc. 33 in 90% aqueous methanol, 20 g heptane, 0 °C.
[24] abbreviates: ratio of DDTr D.C. to that of dicofol, dicofol solution conc. 40 in 90% aqueous methanol, 40 g heptane, 23 °C.
The mark [25] stands for this setting: ratio of DDTr D.C. to that of dicofol, dicofol solution conc. 50 in 90% aqueous methanol, 20 g heptane, 0 °C.
The mark [26] stands for this setting: ratio of DDTr D.C. to that of dicofol, dicofol solution conc. 50 in 90% aqueous methanol, 40 g heptane, 23 °C.

Turning to `ClC(Cl)=C(c1ccc(Cl)cc1)c1ccccc1Cl` [o,p'-DDE], the “Distribution coefficient (D.C.)” value was determined as 2.4 in series [1] (setting [4]); 2.4 in series [1] (setting [5]); 2.4 in series [1] (setting [6]); 3.6 in series [1] (setting [7]); 3.9 in series [1] (setting [8]); 3.2 in series [1] (setting [9]). The “Distribution coefficient (D.C.)” value in series [1] (setting [10]) is on record as 3.4; in series [1] (setting [11]), 3.5; in series [1] (setting [12]) it was 2.4; in series [1] (setting [13]) it was 1.8; in series [1] (setting [14]), 2.32; in series [1] (setting [15]), 1.3. Further, the “Distribution coefficient (D.C.)” value in series [1] (setting [16]) was found to be 1.66; in series [2] (85% aqueous ethanol), 2.06; in series [2] (87% aqueous ethanol), 1.28; in series [2] (90% aqueous ethanol) it was 1.08; in series [3] (4 % H₂O in Aq. MeOH), 1.5; in series [3] (8 % H₂O in Aq. MeOH) it was 2.2. Also, the “Distribution coefficient (D.C.)” value is recorded as 3.1 in series [3] (12 % H₂O in Aq. MeOH) and 3.6 in series [3] (16 % H₂O in Aq. MeOH). Further, the “Selectivity (Sel.)” value in series [1] (setting [4]) came to 7.6; in series [1] (setting [5]) it was 7.2; in series [1] (setting [6]), 6.8; in series [1] (setting [17]) it was 17.3; in series [1] (setting [18]), 12.2; in series [1] (setting [19]), 16.1. The “Selectivity (Sel.)” value in series [1] (setting [20]) amounted to 10.1; in series [1] (setting [21]), 11.0; in series [1] (setting [22]), 7.9; in series [1] (setting [23]), 10.5; in series [1] (setting [24]), 7.2; in series [1] (setting [25]), 7.9. Besides, the “Selectivity (Sel.)” value worked out at 5.3 in series [1] (setting [26]); 2.78 in series [2] (85% aqueous ethanol); 2.01 in series [2] (87% aqueous ethanol); 1.42 in series [2] (90% aqueous ethanol); 5.7 in series [3] (4 % H₂O in Aq. MeOH); 7.7 in series [3] (8 % H₂O in Aq. MeOH). The “Selectivity (Sel.)” value in series [3] (12 % H₂O in Aq. MeOH) was 8.3; in series [3] (16 % H₂O in Aq. MeOH), 6.1.
Turning to `Clc1ccc(C(Cl)(c2ccc(Cl)cc2)C(Cl)(Cl)Cl)cc1` [p,p'-Cl-DDT, 1,1-bis-(4-chlorophenyl)-1,2,2,2-tetrachloroethane], the “Distribution coefficient (D.C.)” value was determined as 3.7 in series [1] (setting [4]); 3.8 in series [1] (setting [5]); 3.8 in series [1] (setting [6]); 9.1 in series [1] (setting [7]); 7.5 in series [1] (setting [8]); 4.4 in series [1] (setting [9]). The “Distribution coefficient (D.C.)” value in series [1] (setting [10]) worked out at 4.1; in series [1] (setting [11]), 5.3; in series [1] (setting [12]), 4.0; in series [1] (setting [13]) it was 2.6; in series [1] (setting [14]) it was 2.8; in series [1] (setting [15]) it was 1.5. For the same compound, the “Distribution coefficient (D.C.)” value in series [1] (setting [16]) is 2.1; in series [2] (85% aqueous ethanol) it was 1.65; in series [2] (87% aqueous ethanol) it was 1.48; in series [2] (90% aqueous ethanol), 0.91; in series [3] (4 % H₂O in Aq. MeOH), 1.9; in series [3] (8 % H₂O in Aq. MeOH), 2.9. Moreover, the “Distribution coefficient (D.C.)” value was found to be 4.6 in series [3] (12 % H₂O in Aq. MeOH) and 6.8 in series [3] (16 % H₂O in Aq. MeOH). Moreover, the “Selectivity (Sel.)” value in series [1] (setting [4]) was found to be 11.8; in series [1] (setting [5]), 11.4; in series [1] (setting [6]) it was 10.8; in series [1] (setting [17]), 23.3; in series [1] (setting [18]) it was 23.4; in series [1] (setting [19]), 22.4. The “Selectivity (Sel.)” value in series [1] (setting [20]) is given as 12.2; in series [1] (setting [21]) it was 16.8; in series [1] (setting [22]), 13.1; in series [1] (setting [23]), 14.9; in series [1] (setting [24]) it was 8.6; in series [1] (setting [25]) it was 9.4. The “Selectivity (Sel.)” value came to 6.8 in series [1] (setting [26]); 2.22 in series [2] (85% aqueous ethanol); 2.33 in series [2] (87% aqueous ethanol); 1.20 in series [2] (90% aqueous ethanol); 7.0 in series [3] (4 % H₂O in Aq. MeOH); 10.1 in series [3] (8 % H₂O in Aq. MeOH). The “Selectivity (Sel.)” value is given as 12.2 in series [3] (12 % H₂O in Aq. MeOH) and 11.4 in series [3] (16 % H₂O in Aq. MeOH).
As to `Clc1ccc(C(c2ccc(Cl)cc2)C(Cl)Cl)cc1` [p,p'-DDD, 1,1-bis-(4-chlorophenyl)-2,2-dichloroethane], the “Distribution coefficient (D.C.)” value amounted to 0.66 in series [1] (setting [4]), 0.71 in series [1] (setting [5]) and 0.79 in series [1] (setting [6]). Moreover, the “Selectivity (Sel.)” value in series [1] (setting [4]) worked out at 2.1; in series [1] (setting [5]) it was 2.1; in series [1] (setting [6]), 2.2.
Consider `Clc1ccc(C(c2ccc(Cl)cc2)C(Cl)(Cl)Cl)cc1` [p,p'-DDT, 1,1-bis-(4-chlorophenyl)-2,2,2-trichloroethane], for which the results for the “Distribution coefficient (D.C.)” value in series [1] (setting [4]), in series [1] (setting [5]) and in series [1] (setting [6]) were 1.9, 1.9 and 2.1, respectively. In addition, the “Selectivity (Sel.)” value in series [1] (setting [4]) is 5.9; in series [1] (setting [5]) it was 5.6; in series [1] (setting [6]), 6.0.
